Source: US8124788B2, “Spirocyclic cyclohexane compounds with analgesic activity” (Gruenenthal GmbH, priority 2006, dated 2012)

Biological target: T1, human μ opiate receptor (Homo sapiens, UniProt P35372)
T1 construct: purchased PerkinElmer Life Sciences, Zaventem, Belgium RB-HOM; host or cells: CHO-K1 cells (recombinant expression)
Assay: Affinity for the human μ opiate receptor ([3H]-naloxone displacement, CHO-K1 membrane preparation, SPA)
Format: binding
Details: compounds prepared via automated synthesis; single measurements at a test concentration of 1 μM
Experimental: The receptor affinity for the human μ opiate receptor is determined in a homogeneous set-up in microtitre plates. For this purpose, dilution series of the substances to be tested are incubated with a receptor membrane preparation (15-40 μg of protein/250 μl of incubation batch) of CHO-K1 cells which express the human μ opiate receptor (RB-HOM receptor membrane preparation from PerkinElmer Life Sciences, Zaventem, Belgium) in the presence of 1 nmol/l of the radioactive ligand [^3H]-naloxone (NET719, PerkinElmer Life Sciences, Zaventem, Belgium) and 1 mg of WGA-SPA-Beads (wheat germ agglutinin SPA beads from Amersham/Pharmacia, Freiburg, Germany) in a total volume of 250 μl for 90 minutes at room temperature. 50 mmol/l of Tris-HCl supplemented with 0.06% of bovine serum albumin are used as the incubation buffer. 100 μmol/l of naloxone are additionally added for determination of the non-specific binding. After the end of the ninety-minute incubation time, the microtitre plates are centrifuged for 20 minutes at 1,000 g and the radioactivity is measured in a β-counter (Microbeta-Trilum, PerkinElmer Wallac, Freiburg, Germany). The percentage displacement of the radioactive ligand from its binding to the human μ opiate receptor is determined at a concentration of the test substances of 1 μmol/l and stated as the percentage inhibition of the specific binding. Starting from the percentage displacement by various concentrations of the test substances, IC50 inhibitory concentrations which cause a 50 percent displacement of the radioactive ligand are calculated. By conversion by means of the Cheng-Prusoff relationship, Ki values for the test substances are obtained.

T1 sequence (P35372 whole entry): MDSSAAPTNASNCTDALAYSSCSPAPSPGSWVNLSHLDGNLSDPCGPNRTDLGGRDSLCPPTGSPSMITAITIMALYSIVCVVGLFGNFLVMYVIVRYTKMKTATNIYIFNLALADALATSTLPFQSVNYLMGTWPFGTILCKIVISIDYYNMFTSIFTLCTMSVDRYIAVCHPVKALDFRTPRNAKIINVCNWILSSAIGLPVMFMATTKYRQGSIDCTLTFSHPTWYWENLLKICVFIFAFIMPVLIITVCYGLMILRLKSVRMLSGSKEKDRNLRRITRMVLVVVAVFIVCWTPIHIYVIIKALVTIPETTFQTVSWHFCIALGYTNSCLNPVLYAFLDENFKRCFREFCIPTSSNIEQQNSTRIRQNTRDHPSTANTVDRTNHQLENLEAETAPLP

SMILES	μ opioid receptor [1 μmol], % inhibition
CCCCC(CC)C(=O)N1CCc2c([nH]c3ccccc23)C12CCC(C(c1cccc(F)c1)N(C)C)CC2 (stereo not shown) [Compound 111, 2-(2-ethylhexanoyl)-{1,1-[3-(dimethylamino-(3-fluorophenyl)methyl)-pentamethylene]-3,4-dihydro-1H-2,9-diazafluorene}]	13%
CC(CC(=O)N1CCc2c([nH]c3ccccc23)C12CCC(C(c1ccc(F)cc1)N(C)C)CC2)c1ccccc1 (stereo not shown) [Compound 142, 1-{1,1-[3-(dimethylamino-(4-fluorophenyl)methyl) -pentamethylene]-3,4-dihydro-1H-2,9-diazafluoren-2-yl}-3-phenylbutan-1-one]	30%
CN(C)C(c1ccc(Cl)cc1)C1CCC2(CC1)c1[nH]c3ccccc3c1CCN2C(=O)Cc1cccs1 (stereo not shown) [Compound 98, 2-(2-thienylacetyl)-{1,1-[3-(dimethylamino-(4-chlorophenyl)methyl)-pentamethylene]-3,4-dihydro-1H-2,9-diazafluorene}]	21%
CC(=Cc1ccccc1)C(=O)N1CCc2c([nH]c3ccccc23)C12CCC(C(c1ccccc1)N(C)C)CC2 (stereo not shown) [Compound 58, 1-{1,1-[3-(dimethylamino-phenylmethyl)-pentamethylene]-3,4-dihydro-1H-2,9-diazafluoren-2-yl}-2-methyl-3-phenylprop-2-en-1-one]	50%
CN(C)C(c1ccccc1)C1CCC2(CC1)c1[nH]c3ccccc3c1CCN2C(=O)C1CCCCC1 (stereo not shown) [Compound 59, 2-(cyclohexylcarbonyl)-{1,1-[3-(dimethylamino-phenylmethyl)-pentamethylene]-3,4-dihydro-1H-2,9-diazafluorene}]	29%
COCC(=O)N1CCc2c([nH]c3ccccc23)C12CCC(C(c1ccccc1)N(C)C)CC2 (stereo not shown) [Compound 81, 2-(methoxyacetyl)-{1,1-[3-(dimethylamino-phenylmethyl) -pentamethylene]-3,4-dihydro-1H-2,9-diazafluorene}]	0%
CN(C)C(c1ccc(Cl)cc1)C1CCC2(CC1)c1[nH]c3ccccc3c1CCN2C(=O)CCC1CCCC1 (stereo not shown) [Compound 95, 2-(3-cyclopentylpropanoyl)-{1,1-[3-(dimethylamino-(4-chlorophenyl)-methyl)-pentamethylene]-3,4-dihydro-1H-2,9-diazafluorene}]	18%
Cc1ccc2sc(C(=O)N3CCc4c([nH]c5ccccc45)C34CCC(C(c3cccc(F)c3)N(C)C)CC4)cc2c1 (stereo not shown) [Compound 128, 2-[5-methylbenzothien-2-ylcarbonyl]-{1,1-[3-(dimethylamino-(3-fluorophenyl)methyl)-pentamethylene]-3,4-dihydro-1H-2,9-diazafluorene}]	16%
CC(CC(=O)N1CCc2c([nH]c3ccccc23)C12CCC(C(c1cccc(F)c1)N(C)C)CC2)c1ccccc1 (stereo not shown) [Compound 130, 1-{1,1-[3-(dimethylamino-(3-fluorophenyl)methyl) -pentamethylene]-3,4-dihydro-1H-2,9-diazafluoren-2-yl}-3-phenylbutan-1-one]	49%
CN(C)C(c1cccc(F)c1)C1CCC2(CC1)c1[nH]c3ccccc3c1CCN2C(=O)COc1ccc(Cl)cc1 (stereo not shown) [Compound 70, 2-[(4-chlorophenoxy)acetyl]-{1,1-[3-(dimethylamino-(3-fluorophenyl)methyl)-pentamethylene]-3,4-dihydro-1H-2,9-diazafluorene}]	31%
CN(C)C(c1ccccc1)C1CCC2(CC1)c1[nH]c3ccccc3c1CCN2C(=O)C=Cc1ccccc1 (stereo not shown) [Compound 80, 1-{1,1-[3-(dimethylamino-phenylmethyl)-pentamethylene]-3,4-dihydro-1H-2,9-diazafluoren-2-yl}-3-phenylprop-2-en-1-one]	41%
CCC(CC)C(=O)N1CCc2c([nH]c3ccccc23)C12CCC(C(c1ccc(F)cc1)N(C)C)CC2 (stereo not shown) [Compound 139, 1-{1,1-[3-(dimethylamino-(4-fluorophenyl)methyl) -pentamethylene]-3,4-dihydro-1H-2,9-diazafluoren-2-yl}-2-ethylbutan-1-one]	25%
CN(C)C(c1ccccc1)C1CCC2(CC1)c1[nH]c3ccccc3c1CCN2C(=O)C1CCCC1 (stereo not shown) [Compound 125, 2-cyclopentylcarbonyl-{1,1-[3-(dimethylamino-phenylmethyl)-pentamethylene]-3,4-dihydro-1H-2,9-diazafluorene}]	29%
CN(C)C(c1ccc(Cl)cc1)C1CCC2(CC1)c1[nH]c3ccccc3c1CCN2C(=O)COCc1ccccc1 (stereo not shown) [Compound 99, 2-(benzyloxyacetyl)-{1,1-[3-(dimethylamino-(4-chlorophenyl)methyl)-pentamethylene]-3,4-dihydro-1H-2,9-diazafluorene}]	35%
COCC(=O)N1CCc2c([nH]c3ccccc23)C12CCC(C(c1cccc(F)c1)N(C)C)CC2 (stereo not shown) [Compound 92, 2-(methoxyacetyl)-{1,1-[3-(dimethylamino-(3-fluorophenyl)methyl)-pentamethylene]-3,4-dihydro-1H-2,9-diazafluorene}]	22%
COc1ccc(CC(=O)N2CCc3c([nH]c4ccccc34)C23CCC(C(c2ccc(Cl)cc2)N(C)C)CC3)cc1OC (stereo not shown) [Compound 74, 2-[(3,4-dimethoxyphenyl)acetyl]-{1,1-[3-(dimethylamino-(4-chlorophenyl)-methyl)-pentamethylene]-3,4-dihydro-1H-2,9-diazafluorene}]	37%
CN(C)C(c1cccc(F)c1)C1CCC2(CC1)c1[nH]c3ccccc3c1CCN2C(=O)C1CC1 (stereo not shown) [Compound 91, 2-(cyclopropylcarbonyl)-{1,1-[3-(dimethylamino-(3-fluorophenyl)methyl)-pentamethylene]-3,4-dihydro-1H-2,9-diazafluorene}]	25%
CN(C)C(c1ccc(F)cc1)C1CCC2(CC1)c1[nH]c3ccccc3c1CCN2C(=O)C=Cc1ccccc1 (stereo not shown) [Compound 86, 1-{1,1-[3-(dimethylamino-(4-fluorophenyl)methyl) -pentamethylene]-3,4-dihydro-1H-2,9-diazafluoren-2-yl}-3-phenylprop-2-en-1-one]	12%
CN(C)C(c1cccc(F)c1)C1CCC2(CC1)c1[nH]c3ccccc3c1CCN2C(=O)CC(C)(C)C (stereo not shown) [Compound 66, 1-{1,1-[3-(dimethylamino-(3-fluorophenyl)methyl) -pentamethylene]-3,4-dihydro-1H-2,9-diazafluoren-2-yl}-3,3-dimethylbutan-1-one]	26%
CN(C)C(c1ccc(Cl)cc1)C1CCC2(CC1)c1[nH]c3ccccc3c1CCN2C(=O)COc1ccc(Cl)cc1 (stereo not shown) [Compound 77, 2-[(4-chlorophenoxy)acetyl]-{1,1-[3-(dimethylamino-(4-chlorophenyl)-methyl)-pentamethylene]-3,4-dihydro-1H-2,9-diazafluorene}]	17%
CN(C)C(c1ccccc1)C1CCC2(CC1)c1[nH]c3ccccc3c1CCN2C(=O)Cc1ccc(F)cc1 (stereo not shown) [Compound 104, 2-[(4-fluorophenyl)acetyl]-{1,1-[3-(dimethylamino-phenylmethyl)-pentamethylene]-3,4-dihydro-1H-2,9-diazafluorene}]	39%
CN(C)C(c1ccc(F)cc1)C1CCC2(CC1)c1[nH]c3ccccc3c1CCN2C(=O)COc1ccc(Cl)cc1 (stereo not shown) [Compound 65, 2-[(4-chlorophenoxy)acetyl]-{1,1-[3-(dimethylamino-(4-fluorophenyl)methyl)-pentamethylene]-3,4-dihydro-1H-2,9-diazafluorene}]	17%
COc1ccc(CC(=O)N2CCc3c([nH]c4ccccc34)C23CCC(C(c2ccccc2)N(C)C)CC3)cc1OC (stereo not shown) [Compound 57, 2-[(3,4-dimethoxyphenyl)acetyl]-{1,1-[3-(dimethylamino-phenylmethyl)-pentamethylene]-3,4-dihydro-1H-2,9-diazafluorene}]	55%
CCCCC(CC)C(=O)N1CCc2c([nH]c3ccccc23)C12CCC(C(c1ccccc1)N(C)C)CC2 (stereo not shown) [Compound 100, 2-(2-ethylhexanoyl)-{1,1-[3-(dimethylamino-phenylmethyl)-pentamethylene]-3,4-dihydro-1H-2,9-diazafluorene}]	65%
CCCCC(CC)C(=O)N1CCc2c([nH]c3ccccc23)C12CCC(C(c1ccc(Cl)cc1)N(C)C)CC2 (stereo not shown) [Compound 118, 2-(2-ethylhexanoyl)-{1,1-[3-(dimethylamino-(4-chlorophenyl)methyl)-pentamethylene]-3,4-dihydro-1H-2,9-diazafluorene}]	35%
